Legend:
Type in all cases: in vivo
[1] = system: barnyardgrass (Echinochloa crus-galli); test: Test A pre-/postemergence greenhouse herbicide test, visual injury rating 0-100
Summary of the method: (§1)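 Test chemicals in a non-phytotoxic solvent/surfactant blend were sprayed onto loam–sand soil after planting (pre) and onto 2–10 cm seedlings at one to two leaves (post). Greenhouse hold approx. 10 days; injury then judged visually.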

[2] = system: corn (Zea mays); test: as above
Summary of the method: as §1

[3] = system: giant foxtail (Setaria faberii); test: as above
Summary of the method: as §1

[4] = system: large (Lg) crabgrass (Digitaria sanguinalis); test: as above
Summary of the method: as §1

[5] = system: morningglory (Ipomoea spp.); test: as above
Summary of the method: as §1

[6] = system: pigweed (Amaranthus retroflexus); test: as above
Summary of the method: as §1

[7] = system: velvetleaf (Abutilon theophrasti); test: as above
Summary of the method: as §1

[8] = system: wheat (Triticum aestivum); test: as above
Summary of the method: as §1

[9] = system: barnyardgrass (Echinochloa crus-galli); test: Test B flooded paddy test, plant response rating 0-100; settings: Flood, 250 g ai/ha; scale 0 to 100 (0 no effect, 100 complete control); 13 to 15 days
Description: (§2) At time of treatment, test pots were flooded to 3 cm above the soil surface, treated by application of test compounds directly to the paddy water, and then maintained at that water depth for the duration of the test. Treated plants and controls were maintained in a greenhouse for 13 to 15 days, after which time all species were compared to controls and visually evaluated. […] A dash (-) response means no test result.

[10] = system: ducksalad (Heteranthera limosa); test: as above; settings: Flood, 250 g ai/ha; scale 0 to 100 (0 no effect, 100 complete control); 13 to 15 days
Description: as §2

[11] = system: rice (Oryza sativa); test: as above; settings: Flood, 250 g ai/ha; scale 0 to 100 (0 no effect, 100 complete control); 13 to 15 days
Description: as §2

[12] = system: sedge, umbrella (small-flower umbrella sedge, Cyperus difformis); test: as above; settings: Flood, 250 g ai/ha; scale 0 to 100 (0 no effect, 100 complete control); 13 to 15 days
Description: as §2

Row | SMILES | Plant response rating, Barnyardgrass [9] | Plant response rating, Ducksalad [10] | Plant response rating, Rice [11] | Plant response rating, Sedge, Umbrella [12] | Plant response rating (0 to 100 scale), Barnyardgrass ([1]; Postemergence, 125 g ai/ha) | Plant response rating (0 to 100 scale), Barnyardgrass ([1]; Postemergence, 500 g ai/ha) | Barnyardgrass plant response rating (0 = no effect, 100 = complete control) ([1]; Preemergence, 125 g ai/ha) | Plant response rating (0 to 100 scale), Barnyardgrass ([1]; Preemergence, 500 g ai/ha) | Plant response rating (0 to 100 scale), Corn ([2]; Postemergence, 125 g ai/ha) | Plant response rating (0 to 100 scale), Corn ([2]; Postemergence, 500 g ai/ha) | Corn plant response rating (0 = no effect, 100 = complete control) ([2]; Preemergence, 125 g ai/ha) | Plant response rating (0 to 100 scale), Corn ([2]; Preemergence, 500 g ai/ha) | Plant response rating (0 to 100 scale), Foxtail, Giant ([3]; Postemergence, 125 g ai/ha) | Plant response rating (0 to 100 scale), Foxtail, Giant ([3]; Postemergence, 500 g ai/ha) | Foxtail, Giant plant response rating (0 = no effect, 100 = complete control) ([3]; Preemergence, 125 g ai/ha) | Plant response rating (0 to 100 scale), Foxtail, Giant ([3]; Preemergence, 500 g ai/ha) | Plant response rating (0 to 100 scale), Crabgrass, Large ([4]; Postemergence, 125 g ai/ha) | Plant response rating (0 to 100 scale), Crabgrass, Large ([4]; Postemergence, 500 g ai/ha) | Plant response rating (0 to 100 scale), Crabgrass, Large ([4]; Preemergence, 500 g ai/ha) | Plant response rating (0 to 100 scale), Morningglory ([5]; Postemergence, 125 g ai/ha) | further results
1 | CCn1cc(C(=O)c2ccccc2)c(-c2cc(F)cc(Br)c2)n1 [Compound 10] | 0 | 0 | 0 | 0 |  |  |  |  |  |  |  |  |  |  |  |  |  |  |  |  | Plant response rating (0 to 100 scale), Barnyardgrass ([1]; Postemergence, 1000 g ai/ha): 0; Plant response rating (0 to 100 scale), Barnyardgrass ([1]; Preemergence, 1000 g ai/ha): 0; Plant response rating (0 to 100 scale), Corn ([2]; Postemergence, 1000 g ai/ha): 0; Plant response rating (0 to 100 scale), Corn ([2]; Preemergence, 1000 g ai/ha): 0; Plant response rating (0 to 100 scale), Foxtail, Giant ([3]; Postemergence, 1000 g ai/ha): 0; Plant response rating (0 to 100 scale), Foxtail, Giant ([3]; Preemergence, 1000 g ai/ha): 0; Plant response rating (0 to 100 scale), Crabgrass, Large ([4]; Postemergence, 1000 g ai/ha): 0; Plant response rating (0 to 100 scale), Crabgrass, Large ([4]; Preemergence, 1000 g ai/ha): 0; Plant response rating (0 to 100 scale), Morningglory ([5]; Postemergence, 1000 g ai/ha): 0; Plant response rating (0 to 100 scale), Morningglory ([5]; Preemergence, 1000 g ai/ha): 0; Plant response rating (0 to 100 scale), Pigweed ([6]; Postemergence, 1000 g ai/ha): 90; Plant response rating (0 to 100 scale), Pigweed ([6]; Preemergence, 1000 g ai/ha): 100; Plant response rating (0 to 100 scale), Velvetleaf ([7]; Postemergence, 1000 g ai/ha): 90; Plant response rating (0 to 100 scale), Velvetleaf ([7]; Preemergence, 1000 g ai/ha): 90; Plant response rating (0 to 100 scale), Wheat ([8]; Postemergence, 1000 g ai/ha): 0; Plant response rating (0 to 100 scale), Wheat ([8]; Preemergence, 1000 g ai/ha): 0
2 | O=C(c1cncc(F)c1)c1c[nH]nc1-c1cc(F)cc(Cl)c1 [Compound 22] | 0 | 0 | 0 | 0 | 0 | 0 | 0 | 0 | 0 | 0 | 0 | 0 | 0 | 0 | 0 | 0 | 0 | 0 | 0 | 0 | Crabgrass, Large plant response rating (0 = no effect, 100 = complete control) ([4]; Preemergence, 125 g ai/ha): 0; Plant response rating (0 to 100 scale), Morningglory ([5]; Postemergence, 500 g ai/ha): 0; Morningglory plant response rating (0 = no effect, 100 = complete control) ([5]; Preemergence, 125 g ai/ha): 0; Plant response rating (0 to 100 scale), Morningglory ([5]; Preemergence, 500 g ai/ha): 0; Plant response rating (0 to 100 scale), Pigweed ([6]; Postemergence, 125 g ai/ha): 70; Plant response rating (0 to 100 scale), Pigweed ([6]; Postemergence, 500 g ai/ha): 100; Pigweed plant response rating (0 = no effect, 100 = complete control) ([6]; Preemergence, 125 g ai/ha): 60; Plant response rating (0 to 100 scale), Pigweed ([6]; Preemergence, 500 g ai/ha): 100; Plant response rating (0 to 100 scale), Velvetleaf ([7]; Postemergence, 125 g ai/ha): 60; Plant response rating (0 to 100 scale), Velvetleaf ([7]; Postemergence, 500 g ai/ha): 80; Velvetleaf plant response rating (0 = no effect, 100 = complete control) ([7]; Preemergence, 125 g ai/ha): 30; Plant response rating (0 to 100 scale), Velvetleaf ([7]; Preemergence, 500 g ai/ha): 60; Plant response rating (0 to 100 scale), Wheat ([8]; Postemergence, 125 g ai/ha): 0; Plant response rating (0 to 100 scale), Wheat ([8]; Postemergence, 500 g ai/ha): 0; Wheat plant response rating (0 = no effect, 100 = complete control) ([8]; Preemergence, 125 g ai/ha): 0; Plant response rating (0 to 100 scale), Wheat ([8]; Preemergence, 500 g ai/ha): 0
3 | O=C(c1cncc(F)c1)c1c[nH]nc1-c1cc(F)cc(F)c1 [Compound 23] | 0 | 0 | 0 | 0 | 0 | 0 | 0 | 0 | 0 | 0 | 0 | 0 | 0 | 0 | 0 | 0 | 0 | 0 | 0 | 0 | Plant response rating (0 to 100 scale), Morningglory ([5]; Postemergence, 500 g ai/ha): 0; Morningglory plant response rating (0 = no effect, 100 = complete control) ([5]; Preemergence, 125 g ai/ha): 0; Plant response rating (0 to 100 scale), Morningglory ([5]; Preemergence, 500 g ai/ha): 0; Plant response rating (0 to 100 scale), Pigweed ([6]; Postemergence, 125 g ai/ha): 50; Plant response rating (0 to 100 scale), Pigweed ([6]; Postemergence, 500 g ai/ha): 60; Pigweed plant response rating (0 = no effect, 100 = complete control) ([6]; Preemergence, 125 g ai/ha): 70; Plant response rating (0 to 100 scale), Pigweed ([6]; Preemergence, 500 g ai/ha): 100; Plant response rating (0 to 100 scale), Velvetleaf ([7]; Postemergence, 125 g ai/ha): 0; Plant response rating (0 to 100 scale), Velvetleaf ([7]; Postemergence, 500 g ai/ha): 40; Velvetleaf plant response rating (0 = no effect, 100 = complete control) ([7]; Preemergence, 125 g ai/ha): 60; Plant response rating (0 to 100 scale), Velvetleaf ([7]; Preemergence, 500 g ai/ha): 90; Plant response rating (0 to 100 scale), Wheat ([8]; Postemergence, 125 g ai/ha): 0; Plant response rating (0 to 100 scale), Wheat ([8]; Postemergence, 500 g ai/ha): 0; Wheat plant response rating (0 = no effect, 100 = complete control) ([8]; Preemergence, 125 g ai/ha): 0; Plant response rating (0 to 100 scale), Wheat ([8]; Preemergence, 500 g ai/ha): 0
4 | CCn1cc(C(=O)c2cccs2)c(-c2cc(F)cc(Cl)c2)n1 [Compound 24] | 0 | 0 | 0 | 0 | 0 | 10 | 0 | 0 | 0 | 0 | 0 | 0 | 0 | 10 | 0 | 0 | 10 | 20 | 20 | 0 | Crabgrass, Large plant response rating (0 = no effect, 100 = complete control) ([4]; Preemergence, 125 g ai/ha): 0; Plant response rating (0 to 100 scale), Morningglory ([5]; Postemergence, 500 g ai/ha): 10; Morningglory plant response rating (0 = no effect, 100 = complete control) ([5]; Preemergence, 125 g ai/ha): 0; Plant response rating (0 to 100 scale), Morningglory ([5]; Preemergence, 500 g ai/ha): 0; Plant response rating (0 to 100 scale), Pigweed ([6]; Postemergence, 125 g ai/ha): 80; Plant response rating (0 to 100 scale), Pigweed ([6]; Postemergence, 500 g ai/ha): 100; Pigweed plant response rating (0 = no effect, 100 = complete control) ([6]; Preemergence, 125 g ai/ha): 60; Plant response rating (0 to 100 scale), Pigweed ([6]; Preemergence, 500 g ai/ha): 80; Plant response rating (0 to 100 scale), Velvetleaf ([7]; Postemergence, 125 g ai/ha): 40; Plant response rating (0 to 100 scale), Velvetleaf ([7]; Postemergence, 500 g ai/ha): 90; Velvetleaf plant response rating (0 = no effect, 100 = complete control) ([7]; Preemergence, 125 g ai/ha): 0; Plant response rating (0 to 100 scale), Velvetleaf ([7]; Preemergence, 500 g ai/ha): 0; Plant response rating (0 to 100 scale), Wheat ([8]; Postemergence, 125 g ai/ha): 0; Plant response rating (0 to 100 scale), Wheat ([8]; Postemergence, 500 g ai/ha): 0; Wheat plant response rating (0 = no effect, 100 = complete control) ([8]; Preemergence, 125 g ai/ha): 0; Plant response rating (0 to 100 scale), Wheat ([8]; Preemergence, 500 g ai/ha): 0
5 | O=C(c1ccccc1)c1cn(C(=O)C2CC2)nc1-c1cc(Cl)cc(Cl)c1 [Compound 26] | 0 | 0 | 0 | 0 | 0 | 0 | 0 | 0 | 0 | 0 | 0 | 0 | 0 | 0 | 0 | 0 | 0 | 0 | 0 | 0 | Crabgrass, Large plant response rating (0 = no effect, 100 = complete control) ([4]; Preemergence, 125 g ai/ha): 0; Plant response rating (0 to 100 scale), Morningglory ([5]; Postemergence, 500 g ai/ha): 0; Morningglory plant response rating (0 = no effect, 100 = complete control) ([5]; Preemergence, 125 g ai/ha): 0; Plant response rating (0 to 100 scale), Morningglory ([5]; Preemergence, 500 g ai/ha): 0; Plant response rating (0 to 100 scale), Pigweed ([6]; Postemergence, 125 g ai/ha): 40; Plant response rating (0 to 100 scale), Pigweed ([6]; Postemergence, 500 g ai/ha): 80; Pigweed plant response rating (0 = no effect, 100 = complete control) ([6]; Preemergence, 125 g ai/ha): 0; Plant response rating (0 to 100 scale), Pigweed ([6]; Preemergence, 500 g ai/ha): 0; Plant response rating (0 to 100 scale), Velvetleaf ([7]; Postemergence, 125 g ai/ha): 50; Plant response rating (0 to 100 scale), Velvetleaf ([7]; Postemergence, 500 g ai/ha): 80; Velvetleaf plant response rating (0 = no effect, 100 = complete control) ([7]; Preemergence, 125 g ai/ha): 0; Plant response rating (0 to 100 scale), Velvetleaf ([7]; Preemergence, 500 g ai/ha): 0; Plant response rating (0 to 100 scale), Wheat ([8]; Postemergence, 125 g ai/ha): 0; Plant response rating (0 to 100 scale), Wheat ([8]; Postemergence, 500 g ai/ha): 0; Wheat plant response rating (0 = no effect, 100 = complete control) ([8]; Preemergence, 125 g ai/ha): 0; Plant response rating (0 to 100 scale), Wheat ([8]; Preemergence, 500 g ai/ha): 0
